Source: article PMC6938488, “Nafamostat and sepimostat identified as novel neuroprotective agents via NR2B N-methyl-D-aspartate receptor antagonism using a rat retinal excitotoxicity model” (Scientific Reports, 2019)
Read-outs that look alike come from different tables or passages of the source.

Target: T1, NR2B subunit of NMDA receptor (Rattus norvegicus, UniProt Q00960)
T1 construct: gene Grin2b; native NMDA receptor in rat cerebral cortex membranes; with NR1
Assay type: binding

T1 sequence (Q00960 27-1482, other chains not shown): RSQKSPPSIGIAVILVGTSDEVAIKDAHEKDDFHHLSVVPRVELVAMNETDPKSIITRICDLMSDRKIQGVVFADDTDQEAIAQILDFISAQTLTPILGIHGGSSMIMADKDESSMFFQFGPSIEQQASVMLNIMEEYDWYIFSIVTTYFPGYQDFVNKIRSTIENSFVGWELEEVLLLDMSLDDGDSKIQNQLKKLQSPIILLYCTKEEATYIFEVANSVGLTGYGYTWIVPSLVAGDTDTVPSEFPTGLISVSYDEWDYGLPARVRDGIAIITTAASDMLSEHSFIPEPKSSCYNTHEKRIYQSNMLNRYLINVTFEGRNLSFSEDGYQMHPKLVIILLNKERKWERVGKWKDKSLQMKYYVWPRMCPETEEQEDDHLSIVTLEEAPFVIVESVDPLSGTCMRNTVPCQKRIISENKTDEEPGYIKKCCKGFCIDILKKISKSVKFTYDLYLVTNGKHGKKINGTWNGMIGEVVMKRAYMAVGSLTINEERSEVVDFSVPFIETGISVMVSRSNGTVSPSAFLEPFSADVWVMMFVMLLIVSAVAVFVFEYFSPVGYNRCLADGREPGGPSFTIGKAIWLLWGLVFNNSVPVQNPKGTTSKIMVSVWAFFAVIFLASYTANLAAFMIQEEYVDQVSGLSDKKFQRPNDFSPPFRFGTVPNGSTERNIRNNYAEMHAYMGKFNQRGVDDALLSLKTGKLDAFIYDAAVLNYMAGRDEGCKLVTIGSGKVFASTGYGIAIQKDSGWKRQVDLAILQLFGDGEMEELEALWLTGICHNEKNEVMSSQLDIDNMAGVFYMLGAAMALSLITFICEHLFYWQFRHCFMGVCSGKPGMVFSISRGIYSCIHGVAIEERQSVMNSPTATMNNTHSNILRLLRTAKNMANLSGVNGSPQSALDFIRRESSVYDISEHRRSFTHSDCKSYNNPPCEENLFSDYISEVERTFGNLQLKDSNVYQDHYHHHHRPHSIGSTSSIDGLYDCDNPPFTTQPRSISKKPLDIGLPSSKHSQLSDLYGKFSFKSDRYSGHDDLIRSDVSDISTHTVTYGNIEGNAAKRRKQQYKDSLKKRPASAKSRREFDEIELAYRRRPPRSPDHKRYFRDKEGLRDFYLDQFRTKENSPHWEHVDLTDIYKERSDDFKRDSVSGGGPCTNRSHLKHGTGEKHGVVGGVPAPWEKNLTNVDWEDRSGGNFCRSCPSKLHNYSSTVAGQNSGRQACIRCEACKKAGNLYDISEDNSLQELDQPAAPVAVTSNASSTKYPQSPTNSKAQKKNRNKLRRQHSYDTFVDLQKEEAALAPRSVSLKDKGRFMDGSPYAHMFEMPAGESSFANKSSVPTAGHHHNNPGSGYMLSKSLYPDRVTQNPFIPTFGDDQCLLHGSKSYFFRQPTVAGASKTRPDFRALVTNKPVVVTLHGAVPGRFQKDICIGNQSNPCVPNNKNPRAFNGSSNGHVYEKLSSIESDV

SMILES	Ki [µM]	Ki (read-out: Ki) [µM]
N=C(N)c1ccc2cc(OC(=O)c3ccc(N=C(N)N)cc3)ccc2c1 [nafamostat]	4.2	–
N=C(N)c1ccc2cc(OC(=O)c3ccc(NC4=NCCN4)cc3)ccc2c1 [sepimostat, 6-amidino-2-naphthyl[4-(4,5-dihydro-1H-imidazol-2-yl)amino] benzoate dimethane sulfonate]	–	27.7
